According to patent US10214492B2, “Heterocyclic inhibitors of MCT4” (Vettore, LLC, priority 2016, dated 2019):

How the values were obtained:
MCT1 = MCT1 (Homo sapiens (Human), UniProt P53985); experiment: Assay 4: MCT1-mediated lactate transport in BT20 breast cancer cells; type: cell-based; details: Table 27
How it was run: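 BT20 cells loaded with BCECF-AM (30 mM DMSO stock) for 5 min at 37° C, washed and resuspended in Tyrode's Solution pH 7.4. Lactate uptake tracked via BCECF intracellular pH signal after adding 10 mM L-lactate.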

[1] = Metabolic stability in mouse liver microsomes (in vitro t1/2); type: in vitro ADME; details: for half-life at 2 µM: mouse liver microsomes 0.5 mg/mL, 2 μM compound, read-out: Mouse microsome t1/2, min; for Mouse microsome % 60 min: mouse liver microsomes
Description: (§1) The following are assays that may be used to evaluate the metabolic stability of compounds of Formula (I) in human, rat, or mouse microsomes. The assays follow a common procedure recited below. 1. […] Two separated experiments were performed as follows. a) With NADPH: 10 μL of 20 mg/mL liver microsomes and 40 μL of 10 mM NADPH were added to the incubations. […] The final concentration of microsomes was 0.5 mg/mL. 3. The reaction was started with the addition of 4 μL of 200 μM control compound or test compound solutions. Verapamil was used as positive control in this study. The final concentration of test compound or control compound was 2 μM. 4. Aliquots of 50 μL were taken from the reaction solution at 0, 15, 30, 45 and 60 min. […] Samples were centrifuged at 3,220 g for 40 minutes. A 90 μL aliquot of the supernatant was mixed with 90 μL of ultra-pure H2O and then used for LC-MS/MS analysis. 5. Data analysis. All calculations were carried out using Microsoft Excel. Peak areas were determined from extracted ion chromatograms. The slope value, k, was determined by linear regression of the natural logarithm of the remaining percentage of the parent drug vs. incubation time curve. The in vitro half-life (in vitro t1/2) was determined from the slope value: in vitro t1/2=−(0.693)/k.

MCT4 = MCT4 (Homo sapiens (Human), UniProt O15427); experiment: Assay 3: MCT4-mediated lactate transport in MDA-MB-231 breast cancer cells; type: cell-based; details: MDA-MB-231 cells; lactate transport
MCT4, sequence (O15427 whole entry, looked up): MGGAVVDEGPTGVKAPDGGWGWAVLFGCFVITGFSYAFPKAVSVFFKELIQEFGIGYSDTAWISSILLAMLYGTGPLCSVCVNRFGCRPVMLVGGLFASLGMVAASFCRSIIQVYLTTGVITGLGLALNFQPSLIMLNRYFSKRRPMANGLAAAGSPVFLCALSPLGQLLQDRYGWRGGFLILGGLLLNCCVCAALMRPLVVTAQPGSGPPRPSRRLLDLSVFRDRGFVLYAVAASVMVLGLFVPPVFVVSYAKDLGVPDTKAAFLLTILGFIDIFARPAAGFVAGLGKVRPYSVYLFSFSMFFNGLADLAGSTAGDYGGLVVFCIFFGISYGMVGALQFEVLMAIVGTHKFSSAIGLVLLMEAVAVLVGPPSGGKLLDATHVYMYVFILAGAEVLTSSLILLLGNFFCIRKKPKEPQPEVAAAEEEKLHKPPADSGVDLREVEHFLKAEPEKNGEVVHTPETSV
MCT4, sequence (P35613 whole entry partner, looked up): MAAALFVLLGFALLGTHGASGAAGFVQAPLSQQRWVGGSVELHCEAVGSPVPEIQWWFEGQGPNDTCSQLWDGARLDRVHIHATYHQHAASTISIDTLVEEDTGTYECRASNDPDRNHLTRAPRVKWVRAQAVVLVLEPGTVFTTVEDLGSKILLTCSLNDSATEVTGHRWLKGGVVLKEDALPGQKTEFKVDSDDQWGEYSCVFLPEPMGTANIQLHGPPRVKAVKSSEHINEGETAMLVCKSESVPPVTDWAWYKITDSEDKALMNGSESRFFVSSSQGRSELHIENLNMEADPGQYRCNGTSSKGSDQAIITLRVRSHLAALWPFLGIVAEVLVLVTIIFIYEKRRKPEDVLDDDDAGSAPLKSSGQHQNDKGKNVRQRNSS
How it was run: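 MDA-MB-231 cells loaded with BCECF-AM, 5 min at 37° C, washed and resuspended in Tyrode's Solution, pH 7.4. MCT4 lactate/proton symport followed as the intracellular pH change reported by BCECF fluorescence.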

[2] = Metabolic stability in human liver microsomes (in vitro t1/2); type: in vitro ADME; details: for half-life at 2 µM: read-out: Human microsome t1/2, min; for Human microsome % 60 min: human liver microsomes
Description: as §1

[3] = Metabolic stability in rat liver microsomes (in vitro t1/2); type: in vitro ADME; details: for half-life at 2 µM: rat liver microsomes 0.5 mg/mL, 2 μM compound, read-out: Rat microsome t1/2, min; for Rat microsome % 60 min: rat liver microsomes
Description: as §1

[4] = human liver microsomes 0.5 mg/mL, 2 μM compound

MCT1, sequence (P53985 whole entry): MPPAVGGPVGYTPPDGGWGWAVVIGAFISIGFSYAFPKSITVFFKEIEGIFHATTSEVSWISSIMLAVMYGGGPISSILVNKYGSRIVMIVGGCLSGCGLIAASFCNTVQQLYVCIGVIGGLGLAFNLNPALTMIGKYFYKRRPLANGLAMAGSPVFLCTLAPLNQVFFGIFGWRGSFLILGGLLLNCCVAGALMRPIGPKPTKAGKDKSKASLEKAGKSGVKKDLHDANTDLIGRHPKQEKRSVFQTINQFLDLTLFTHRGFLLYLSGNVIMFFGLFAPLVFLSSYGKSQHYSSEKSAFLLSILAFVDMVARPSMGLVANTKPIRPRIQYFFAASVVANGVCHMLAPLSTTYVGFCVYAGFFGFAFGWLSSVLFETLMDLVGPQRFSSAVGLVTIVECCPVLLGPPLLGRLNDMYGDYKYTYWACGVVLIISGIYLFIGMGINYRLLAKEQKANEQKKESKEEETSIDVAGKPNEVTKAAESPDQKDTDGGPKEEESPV
MCT1, sequence (P35613 140-385 partner): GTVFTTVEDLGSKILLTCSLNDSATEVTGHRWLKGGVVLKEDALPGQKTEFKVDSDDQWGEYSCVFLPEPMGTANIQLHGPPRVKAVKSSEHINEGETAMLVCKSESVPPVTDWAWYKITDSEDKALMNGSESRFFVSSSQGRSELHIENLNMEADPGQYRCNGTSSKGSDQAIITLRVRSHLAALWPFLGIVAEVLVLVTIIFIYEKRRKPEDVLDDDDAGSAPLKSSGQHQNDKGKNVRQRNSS

SMILES: CCOc1ccccc1Cn1nc(COC(C)(C)C(=O)O)cc1-c1ccc2cnn(CC)c2c1 [Example 198, 2-([1-[(2-Ethoxyphenyl)methyl]-5-(1-ethyl-1H-indazol-6-yl)-1H-pyrazol-3-yl]-methoxy)-2-methylpropanoic acid]
- IC50 (MCT1): 26000 nM
- half-life at 2 µM [1]: 4.05 h
- Mouse microsome % 60 min [1]: 84%
- IC50 (MCT4): 3.5 nM
- half-life at 2 µM [2, 4]: 3.45 h
- Human microsome % 60 min [2]: 80%
- half-life at 2 µM [3]: 3.42 h
- Rat microsome % 60 min [3]: 82%

SMILES: CCOc1ccccc1Cn1nc(COC(C)(C)C(=O)O)cc1-c1cccc(OC2CC2)c1 [Example 201, 2-([5-(3-Cyclopropoxyphenyl)-1-[(2-ethoxy-phenyl)methyl]-1H-pyrazol-3-yl]methoxy)-2-methylpropanoic acid]
- IC50 (MCT1): 15000 nM
- half-life at 2 µM [1]: 1.38 h
- Mouse microsome % 60 min [1]: 58%
- IC50 (MCT4): 7.2 nM
- half-life at 2 µM [2, 4]: 1.38 h
- Human microsome % 60 min [2]: 58%
- half-life at 2 µM [3]: 0.75 h
- Rat microsome % 60 min [3]: 39%

SMILES: CC(C)(OCc1cc(-c2cccc(OC3CC3)c2)n(Cc2ccccc2N2CCCC2)n1)C(=O)O [Example 202, 2-([5-(3-Cyclopropoxyphenyl)-1-[[2-(pyrrolidin-1-yl)phenyl]methyl]|-1H-pyrazol-3-yl]methoxy)-2-methylpropanoic acid]
- IC50 (MCT1): 23000 nM
- half-life at 2 µM [1]: 0.633 h
- Mouse microsome % 60 min [1]: 32%
- IC50 (MCT4): 6.2 nM
- half-life at 2 µM [2, 4]: 0.617 h
- Human microsome % 60 min [2]: 32%
- half-life at 2 µM [3]: 0.183 h
- Rat microsome % 60 min [3]: 2%

SMILES: CC(C)(OCc1cc(-c2cccc(OC3CC3)c2)n(-c2ccccc2N2CCCC2)n1)C(=O)O [Example 221, 2-([5-(3-Cyclopropoxyphenyl)-1-[2-(pyrrolidin-1-yl)phenyl]-1H-pyrazol-3-yl]-methoxy)-2-methylpropanoic acid]
- IC50 (MCT1): 38000 nM
- half-life at 2 µM [1]: 0.633 h
- Mouse microsome % 60 min [1]: 34%
- IC50 (MCT4): 3.2 nM
- half-life at 2 µM [2, 4]: 1.13 h
- Human microsome % 60 min [2]: 56%
- half-life at 2 µM [3]: 0.617 h
- Rat microsome % 60 min [3]: 33%

SMILES: CC[C@@](C)(OCc1cc(-c2cc(OC)cc(OC)c2)n(-c2ccccc2Cl)n1)C(=O)O [Example 222, (2R)-2-([1-(2-Chlorophenyl)-5-(3,5-dimethoxyphenyl)-1H-pyrazol-3-yl]-methoxy)-2-methylbutanoic acid]
- IC50 (MCT1): 94000 nM
- half-life at 2 µM [1]: 16.7 h
- Mouse microsome % 60 min [1]: 94%
- IC50 (MCT4): 3.9 nM
- Human microsome t1/2, min [2, 4]: ∞
- Human microsome % 60 min [2]: 110%
- half-life at 2 µM [3]: 5.58 h
- Rat microsome % 60 min [3]: 90%

SMILES: Cn1ncc2ccc(-c3cc(COC(C)(C)C(=O)O)nn3Cc3ccccc3Cl)cc21 [Example 226, 2-([1-[(2-Chlorophenyl)methyl]-5-(1-methyl-1H-indazol-6-yl)-1H-pyrazol-3-yl]-methoxy)-2-methylpropanoic acid]
- IC50 (MCT1): 54000 nM
- half-life at 2 µM [1]: 11.4 h
- Mouse microsome % 60 min [1]: 95%
- IC50 (MCT4): 15 nM
- half-life at 2 µM [2, 4]: 7.8 h
- Human microsome % 60 min [2]: 95%
- half-life at 2 µM [3]: 7.58 h
- Rat microsome % 60 min [3]: 88%
